Source: article PMC12154031, “Screening and Validation: AI-Aided Discovery of Dipeptidyl Peptidase-4 Inhibitory Peptides from Hydrolyzed Rice Proteins” (Foods, 2025)
Read-outs that look alike come from different tables or passages of the source. No end group written: not given here.

How the values were obtained:
[1] = target: T1, DPP-4 (Homo sapiens, UniProt P27487); experiment: DPP-IV-inhibitory activity, Gly-Pro-pNA substrate; format: biochemical; settings: 37 °C, 15 min; for IC50: Tris–HCl 20 mM pH 8.0, substrate Gly-Pro-pNA 1 mM (50 µL), 0.05 mg/mL DPP-4 (10 µL), peptide in ddH2O, dark, absorbance 405 nm, triplicate, four-parameter logistic fit
T1 construct: purchased Adamas (Shanghai Adamas Reagent Co., Ltd., Shanghai, China)
Protocol: The assay method for measuring the peptide inhibition of DPP-4 was based on the combination of two established protocols: the peptides were dissolved in ddH2O to prepare a gradient of concentrations and the DPP-4 enzyme was diluted in Tris–HCl (20 mM, pH 8.0). In a 96-well plate, 30 µL ddH2O, 10 µL peptide solution, 50 µL substrate (1 mM), and 10 µL DPP-4 enzyme (0.05 mg/mL) were added sequentially. Each peptide concentration was tested in triplicate and incubated at 37 °C in the dark for 15 min, and then 100 µL of 0.1 M NaHCO3 solution was added to stop the reaction. The absorbance at 405 nm was measured on a microplate reader, and the percent inhibition of DPP-4 was calculated at each concentration. The IC50 values for the four peptides were determined by fitting the dose–response curves with the log peptide concentration on the x-axis and the DI (%) on the y-axis. The DPP-IV-inhibition (DI) was calculated as follows:(8) DI%=(1−A405peptide−A405buffer/A405positive control−A405negtive control)×[…] where A405 (peptide) represents the optical density (at 405 nm) of the enzyme (DPP-IV) in the presence of the substrate (Gly-Pro-p-nitroanilide) and inhibitor (inhibitory peptide); A405 (buffer) represents the optical density of ddH2O; A405 (positive reaction) represents the optical density of the enzyme and the substrate in the absence of inhibitor; and A405 (negative reaction) represents the optical density of the enzyme in the absence of the substrate and inhibitor.
Origin 2024 was used to sort out the physical and chemical property data and create heatmaps to visualize the correlation between the peptide activity, the docking energy, and the physicochemical properties. GraphPad Prism 10 was used to perform non-linear regression of the DPP-4 percent inhibition versus the log[concentration]. The differences between the IC50 values of DPP-IV were subjected to the ordinary one-way ANOVA test. A p-value < 0.05 was considered significant. Other images were created by Python 3.13.2 and Adobe Illustrator 2022. We evaluated Section 2 of the article using the TRIPOD (Transparent Reporting of a multivariable prediction model for Individual Prognosis Or Diagnosis) framework from the EQUATOR Network.

[2] = target: T1, DPP-4; design: method as in PMID 29963014, PMID 6427168; settings: known DPP-4 inhibitory peptide, positive control; ref [41],[42]; cited from earlier work

T1 sequence (P27487 whole entry): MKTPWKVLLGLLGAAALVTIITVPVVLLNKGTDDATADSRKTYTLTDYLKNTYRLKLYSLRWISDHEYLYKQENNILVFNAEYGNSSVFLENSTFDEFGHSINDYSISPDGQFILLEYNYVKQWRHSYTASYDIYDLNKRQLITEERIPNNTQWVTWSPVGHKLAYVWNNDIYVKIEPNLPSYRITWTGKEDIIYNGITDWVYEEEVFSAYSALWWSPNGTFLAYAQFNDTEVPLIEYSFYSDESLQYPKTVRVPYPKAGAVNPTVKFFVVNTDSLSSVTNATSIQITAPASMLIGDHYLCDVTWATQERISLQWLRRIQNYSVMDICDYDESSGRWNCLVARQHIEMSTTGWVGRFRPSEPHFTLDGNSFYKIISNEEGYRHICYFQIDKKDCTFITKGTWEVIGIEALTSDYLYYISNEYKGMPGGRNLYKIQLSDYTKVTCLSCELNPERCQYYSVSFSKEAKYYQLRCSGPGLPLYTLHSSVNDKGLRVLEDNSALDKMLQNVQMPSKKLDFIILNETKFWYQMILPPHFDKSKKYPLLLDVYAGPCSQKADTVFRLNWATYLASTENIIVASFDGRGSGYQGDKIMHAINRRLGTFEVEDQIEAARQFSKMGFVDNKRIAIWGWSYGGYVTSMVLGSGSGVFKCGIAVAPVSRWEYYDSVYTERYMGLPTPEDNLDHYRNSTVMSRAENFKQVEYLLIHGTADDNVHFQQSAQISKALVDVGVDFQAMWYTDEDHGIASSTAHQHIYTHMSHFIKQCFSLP

Substance | IC50 ([1]; read-out: IC50) | further results
PPPSPPPV [PPPSPPPV] | 216 ± 4.5 µM | 
PPPPPY [PPPPPY] | 153 ± 5.7 µM | 
CPPPPAAY [rice-derived proline-rich peptide, synthesized, purity of 95%] |  | IC50 [1]: could not be determined; DPP-4 inhibition (DI%), result in words ([1]; within the tested concentration range, pH 8.0, n = 3): showed no inhibitory effect
Diprotin A [IPI] |  | IC50 [2]: ~3.5 µM
PPPPPPPPA [PPPPPPPPA] | 177 ± 6 µM | 
